Test system: 377384-186-R-J1-PDC complex spheroid viability
Test: Anticancer human tumor 377384-186-R-J1-PDC patient-derived pancreatic carcinoma cell line growth inhibition [CLK]
Conditions: for IC50: curve of first compound; for viability, T/C: stronger effect = lower value
Excerpt: A high-throughput screen of multi-cell type tumor spheroids was designed to identify active combinations of […] and targeted small molecules. Complex spheroids include a stromal component modeled by human endothelial cells (HUVEC) and fibroblasts modeled by human mesenchymal stem cells (MSCs). The concentration ranges selected for each drug and investigational agent were based upon clinically achievable concentrations if the clinical Cmax of the agent was known.
Compounds. The drugs and investigational agents: cirtuvivint (SM08502; NSC835563), CC-671 (NSC850746), vemurafenib (NSC761431), tapotoclax (NSC804041), sotorasib (NSC818433), adagrasib (NSC831453), MRTX-1133 (NSC836407), BAY2416964 (NSC825713), copanlisib (NSC816437), inavolisib (NSC800729), abemaciclib (NSC768073), osimertinib (NSC779217), entinostat (NSC756642), eltanexor (KPT-8602, NSC794443), venetoclax (NSC766270), ceralasertib (NSC777638), bortezomib (NSC756655), olaparib (NSC753686), talazoparib (NSC767125), alisertib (NSC759677), peposertib (NSC802822), gemcitabine (NSC613327), 5-fluorouracil (NSC19893), SN-38 (NSC673596), oxaliplatin (NSC266046), paclitaxel (NSC125973), and doxorubicin (NSC123127), were obtained from the National Cancer Institute (NCI) Developmental Therapeutics Program Chemical Repository. The FDA-approved anticancer drug set is available from the Developmental Therapeutics Program at https://dtp.cancer.gov/organization/dscb/obtaining/available plates.htm. […] The stock solutions were prepared in dimethyl sulfoxide (DMSO, Sigma-Aldrich, St. Louis, MO, cat. D2650), except for the platinum complexes which were prepared in saline (Quality Biological, Gaithersburg, MD, cat. 114-055-101), at 800-fold the tested concentration and stored at -70 degrees C prior to their use. All drugs and investigational agents were tested over a range starting from a high concentration at or near the clinical Cmax and decreasing in half-log increments. If the clinical Cmax for an agent had not been determined, the highest concentration tested was 10 microM.
Cell Culture. All cells were maintained in an incubator at 37 degrees C and 5% CO2 with 95% humidity. The PDC lines were cultured according to standard operating procedures established by the NCI PDMR. Briefly, all PDCs were thawed and cultured in Matrigel-coated flasks prepared with a working solution of 1X Ham's F-12 nutrient mix, without supplementation (Invitrogen, Waltham, MA, cat. 11765054), 100 U/mL penicillin-streptomycin (Invitrogen, cat. 15140122), and 2.5% Matrigel (Corning Inc., Corning, NY, cat. 354248) for the first three passages. The 947758-054-R-J2-PDC line was cultured in 6B/Colon 1A media, which includes advanced DMEM/F-12 (Thermo Fisher Scientific, cat. 12634028), 10 mM HEPES (Thermo Fisher Scientific, cat. 15630080), 1X GlutaMAX supplement (Thermo Fisher Scientific, cat. 35050061), 0.1 mg/mL primocin (InvivoGen, cat. ant-pm-2), 10% defined fetal bovine serum, heat inactivated (HyClone Laboratories Inc., cat. SH30070.03HI), 1.25 mM N-Acetyl-L-cysteine (Sigma-Aldrich, cat. A9165), 10 mM nicotinamide (Sigma-Aldrich, cat. N0636), 1X B-27 supplement (Thermo Fisher Scientific, cat. 17504044), 1X N-2 supplement (Thermo Fisher Scientific, cat. 17502048), and 10 microM Y-27632 dihydrochloride (Tocris Bioscience, cat. 1254). The 876862-298-R-J1-PDC was cultured in 6E media, which includes all 6B/Colon 1A media components plus 50% L-WRN conditioned media (ATCC, cat. CRL-3276), 50 ng/mL recombinant human EGF recombinant protein (hEGF; Thermo Fisher Scientific, cat. PHG0311), 10 ng/mL recombinant human fibroblast growth factor 10 (hGFG-10; PeproTech, cat. 100-26), 1 ng/mL recombinant human fibroblast growth factor 2 (hFGF-2; PeproTech, cat. 100-18B), and 1 µM prostaglandin E2 (PGE2; Tocris, cat. 2296). The 227483-062-R1-J1-PDC line was cultured in Panc media, containing all 6E components except hFGF-2, with the addition of 500 nM SB-431542 (Selleckchem, cat. S1067) and 10 nM gastrin (Tocris, cat. 3006). […]
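Note: spheroids exposed to agents for 7 days before reading.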
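Throughout, for viability, T/C: luminescence signal used as a stand-in for viable cells.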

Structure (SMILES): C=CC(=O)Nc1cc(Nc2nccc(-c3cn(C)c4ccccc34)n2)c(OC)cc1N(C)CCN(C)C + CN1CCN(c2cc(C(=O)Nc3cc4cc(-c5cnn(C)c5)ccc4cn3)ccn2)CC1
- IC50 (second compound 0.0316 µM): > 300 nM
- IC50 (second compound 0.1 µM): > 300 nM
- IC50 (second compound 0.316 µM): < 0.949 nM
- IC50 (second compound 1 µM): < 0.949 nM
- IC50 (second compound 3.16 µM): < 0.949 nM
- IC50 (second compound 10 µM): < 0.949 nM
- viability, T/C (second compound 0.0316 µM, first compound 0.000949 µM): 91.6%
- viability, T/C (second compound 0.0316 µM, first compound 0.003 µM): 100%
- viability, T/C (second compound 0.0316 µM, first compound 0.00949 µM): 90.7%
- viability, T/C (second compound 0.0316 µM, first compound 0.03 µM): 93.6%
- viability, T/C (second compound 0.0316 µM, first compound 0.0949 µM): 79.5%
- viability, T/C (second compound 0.0316 µM, first compound 0.3 µM): 76.3%
- viability, T/C (second compound 0.1 µM, first compound 0.000949 µM): 109%
- viability, T/C (second compound 0.1 µM, first compound 0.003 µM): 99.4%
- viability, T/C (second compound 0.1 µM, first compound 0.00949 µM): 83.3%
- viability, T/C (second compound 0.1 µM, first compound 0.03 µM): 91.2%
- viability, T/C (second compound 0.1 µM, first compound 0.0949 µM): 79.2%
- viability, T/C (second compound 0.1 µM, first compound 0.3 µM): 63%
- viability, T/C (second compound 0.316 µM, first compound 0.000949 µM): 26.1%
- viability, T/C (second compound 0.316 µM, first compound 0.003 µM): 26.6%
- viability, T/C (second compound 0.316 µM, first compound 0.00949 µM): 25.1%
- viability, T/C (second compound 0.316 µM, first compound 0.03 µM): 26.5%
- viability, T/C (second compound 0.316 µM, first compound 0.0949 µM): 23.7%
- viability, T/C (second compound 0.316 µM, first compound 0.3 µM): 22.2%
- viability, T/C (second compound 1 µM, first compound 0.000949 µM): 1.11%
- viability, T/C (second compound 1 µM, first compound 0.003 µM): 1.28%
- viability, T/C (second compound 1 µM, first compound 0.00949 µM): 2.15%
- viability, T/C (second compound 1 µM, first compound 0.03 µM): 1.55%
- viability, T/C (second compound 1 µM, first compound 0.0949 µM): 1.26%
- viability, T/C (second compound 1 µM, first compound 0.3 µM): 1.63%
- viability, T/C (second compound 3.16 µM, first compound 0.000949 µM): 0.48%
- viability, T/C (second compound 3.16 µM, first compound 0.003 µM): 0.71%
- viability, T/C (second compound 3.16 µM, first compound 0.00949 µM): 1.03%
- viability, T/C (second compound 3.16 µM, first compound 0.03 µM): 0.37%
- viability, T/C (second compound 3.16 µM, first compound 0.0949 µM): 0.75%
- viability, T/C (second compound 3.16 µM, first compound 0.3 µM): 2.51%
- viability, T/C (second compound 10 µM, first compound 0.000949 µM): 0.83%
- viability, T/C (second compound 10 µM, first compound 0.003 µM): 1.36%
- viability, T/C (second compound 10 µM, first compound 0.00949 µM): 1.97%
- viability, T/C (second compound 10 µM, first compound 0.03 µM): 0.66%
- viability, T/C (second compound 10 µM, first compound 0.0949 µM): 2.03%
- viability, T/C (second compound 10 µM, first compound 0.3 µM): 0.56%

Structure (SMILES): Nc1ccccc1NC(=O)c1ccc(CNC(=O)OCc2cccnc2)cc1 + CN1CCN(c2cc(C(=O)Nc3cc4cc(-c5cnn(C)c5)ccc4cn3)ccn2)CC1
- IC50 (second compound 0.0316 µM): 780 nM
- IC50 (second compound 0.1 µM): 822 nM
- IC50 (second compound 0.316 µM): < 31.6 nM
- IC50 (second compound 1 µM): < 31.6 nM
- IC50 (second compound 3.16 µM): < 31.6 nM
- IC50 (second compound 10 µM): < 31.6 nM
- viability, T/C (second compound 0.0316 µM, first compound 0.0316 µM): 103%
- viability, T/C (second compound 0.0316 µM, first compound 0.1 µM): 90%
- viability, T/C (second compound 0.0316 µM, first compound 0.316 µM): 76.3%
- viability, T/C (second compound 0.0316 µM, first compound 1 µM): 42.4%
- viability, T/C (second compound 0.0316 µM, first compound 3.16 µM): 16.2%
- viability, T/C (second compound 0.0316 µM, first compound 10 µM): 1.31%
- viability, T/C (second compound 0.1 µM, first compound 0.0316 µM): 109%
- viability, T/C (second compound 0.1 µM, first compound 0.1 µM): 103%
- viability, T/C (second compound 0.1 µM, first compound 0.316 µM): 90.8%
- viability, T/C (second compound 0.1 µM, first compound 1 µM): 38.9%
- viability, T/C (second compound 0.1 µM, first compound 3.16 µM): 17.7%
- viability, T/C (second compound 0.1 µM, first compound 10 µM): 0.84%
- viability, T/C (second compound 0.316 µM, first compound 0.0316 µM): 30.4%
- viability, T/C (second compound 0.316 µM, first compound 0.1 µM): 28.1%
- viability, T/C (second compound 0.316 µM, first compound 0.316 µM): 29.1%
- viability, T/C (second compound 0.316 µM, first compound 1 µM): 19%
- viability, T/C (second compound 0.316 µM, first compound 3.16 µM): 3.98%
- viability, T/C (second compound 0.316 µM, first compound 10 µM): 0.15%
- viability, T/C (second compound 1 µM, first compound 0.0316 µM): 1.55%
- viability, T/C (second compound 1 µM, first compound 0.1 µM): 1.77%
- viability, T/C (second compound 1 µM, first compound 0.316 µM): 1.31%
- viability, T/C (second compound 1 µM, first compound 1 µM): 0.3%
- viability, T/C (second compound 1 µM, first compound 3.16 µM): 0.25%
- viability, T/C (second compound 1 µM, first compound 10 µM): 0.12%
- viability, T/C (second compound 3.16 µM, first compound 0.0316 µM): 0.38%
- viability, T/C (second compound 3.16 µM, first compound 0.1 µM): 0.95%
- viability, T/C (second compound 3.16 µM, first compound 0.316 µM): 0.9%
- viability, T/C (second compound 3.16 µM, first compound 1 µM): 0.39%
- viability, T/C (second compound 3.16 µM, first compound 3.16 µM): 0.52%
- viability, T/C (second compound 3.16 µM, first compound 10 µM): 0.62%
- viability, T/C (second compound 10 µM, first compound 0.0316 µM): 0.58%
- viability, T/C (second compound 10 µM, first compound 0.1 µM): 0.42%
- viability, T/C (second compound 10 µM, first compound 0.316 µM): 0.45%
- viability, T/C (second compound 10 µM, first compound 1 µM): 0.3%
- viability, T/C (second compound 10 µM, first compound 3.16 µM): 0.62%
- viability, T/C (second compound 10 µM, first compound 10 µM): 0.76%

From PubChem BioAssay AID2060616 (Molecular Pharmacology Branch, DTP, NCI, 2025)
